According to patent US6583159B1, “Substitute 1-(piperidin-4-yl)-3-(aryl)-isothioureas, their preparation and therapeutic use” (Pierre Fabre Medicament, priority 1999, dated 2003):
Counter-ions that a name gives are not always drawn.

Legend:
rat isolated left atrium = test: Inhibition of the contraction with veratrine of the rat isolated left atrium; assay type: cell-based; conditions: 10^−7M, veratrine-induced contraction
Method: The inhibition of the contraction with veratrine of the rat isolated left atrium was carried out according to the technique of Le Grand et al. (Naunyn-Schmiedebergs Arch. Pharmacol., (1993) 348, p. 184-190). The results are shown in Table I below, where the percentages of the inhibition are given at a concentration of 10^−7M.

[1] = test system: guinea pig perfused isolated heart; test: Antiischemic activity, global ischemia in the guinea pig perfused isolated heart; assay type: cell-based; conditions: Cavia porcellus, 10^−6M, ischemic contraction vs vehicle group
Method: The antiischemic activity was measured with regard to the test of the guinea pig perfused isolated heart according to the technique of Le Grand B. et al. (Am. J. Physiol., 269, H533-H540, 1995). The guinea pig hearts are removed, perfused with a modified Krebs solution and the compound to be studied, in solution in water or in a 99/01 water/DMSO mixture (according to solubility), is added after 20 minutes. […], global ischemia is brought about by halting coronary perfusion for 50 min, followed by reperfusion for 1 h. The inhibition of ischemic contraction in the presence of the compound studied is measured with respect to that of the vehicle group. The results are shown in Table II as nonlimiting examples at a concentration of 10^−6M.

anesthetized rabbit = test: Ischemia-reperfusion in the anesthetized rabbit, oral; assay type: in vivo
Excerpt: The compounds of the present invention are also active orally in the test of ischemia-reperfusion in the anesthetized rabbit according to the method of Verscheure et al., (J. Cardiovasc. Pharmacol., 1995, 25, 126-133).

| Structure (SMILES) | melting point [°C] | further results |
| --- | --- | --- |
| CS/C(=N\c1ccccc1)N(C)C1CCN(CCCCOc2ccc(C)c(C)c2)CC1.O=C(O)/C=C/C(=O)O | 138 to 139 |  |
| COc1cc(Cl)ccc1OCCCCN1CCC(N(C)/C(=N/c2ccccc2)SC)CC1.O=C(O)/C=C/C(=O)O | 106 to 107 |  |
| CS/C(=N\c1ccccc1F)N(C)C1CCN(CCCCOc2ccc(F)c(F)c2)CC1.O=C(O)/C=C/C(=O)O | 148 |  |
| CS/C(=N\c1ccc(Cl)cc1)N(C)C1CCN(CCCCOc2ccc(F)c(F)c2)CC1.O=C(O)/C=C/C(=O)O | 130 |  |
| CS/C(=N\c1ccc(C)cc1)N(C)C1CCN(CCCCOc2ccc(F)c(F)c2)CC1.O=C(O)/C=C/C(=O)O | 141 |  |
| COc1ccc(/N=C(\SC)N(C)C2CCN(CCCCOc3ccc(F)c(F)c3)CC2)cc1.O=C(O)/C=C/C(=O)O | 130 |  |
| CS/C(=N\c1c(C)cccc1C)N(C)C1CCN(CCCCOc2ccc(F)c(F)c2)CC1.O=C(O)/C=C/C(=O)O | 129 |  |
| CS/C(=N\c1c(C(C)C)cccc1C(C)C)N(C)C1CCN(CCCCOc2ccc(F)c(F)c2)CC1.O=C(O)/C=C/C(=O)O | 194 |  |
| CS/C(=N\c1cccc(F)c1)N(C)C1CCN(CCCCOc2ccc(F)c(F)c2)CC1.O=C(O)/C=C/C(=O)O | 133 |  |
| CCS/C(=N\c1ccccc1)N(C)C1CCN(CCCCOc2ccc(F)c(F)c2)CC1.O=C(O)/C=C/C(=O)O | 151 to 152 |  |
| CS/C(=N\c1ccc([N+](=O)[O-])cc1)N(C)C1CCN(CCCCOc2ccc(F)c(F)c2)CC1.O=C(O)/C=C/C(=O)O | 132 |  |
| CS/C(=N\c1ccccc1)N(C)C1CCN(CCCOCCc2ccc(F)cc2)CC1.O=C(O)/C=C/C(=O)O | 110 to 111 |  |
| CS/C(=N\c1ccccc1)N(CC(C)C)C1CCN(CCCCOc2ccc(F)c(F)c2)CC1.O=C(O)/C=C/C(=O)O | 131 to 132 |  |
| CS/C(=N\c1ccccc1)N(C)C1CCN(CCCCCOc2ccc(F)c(F)c2)CC1.O=C(O)/C=C/C(=O)O | 129 to 130 |  |
| CS/C(=N\c1ccccc1)N(C)C1CCN(CCCOc2ccc(F)c(F)c2)CC1.O=C(O)/C=C/C(=O)O | 106 to 107 |  |
| CS/C(=N\c1ccccc1)N(C)C1CCN(CCCCOc2ccc(F)cc2)CC1.O=C(O)/C=C/C(=O)O | 133 to 134 |  |
| CS/C(=N\c1ccccc1)N(C)C1CCN(CCOc2ccc(F)cc2)CC1.O=C(O)/C=C/C(=O)O | 120 |  |
| COc1ccc(OCCCCN2CCC(N(C)/C(=N/c3ccccc3)SC)CC2)cc1.O=C(O)/C=C/C(=O)O | 120 |  |
| CS/C(=N\c1ccccc1)N(C)C1CCN(CCCCOc2ccc(F)c(F)c2)CC1.O=C(O)/C=C/C(=O)O [Example 1, 1,2-Dimethyl-3-phenyl-1-[1-[4-(3,4-difluorophenoxy)butyl]piperidin-4-yl]isothiourea hydrogen fumarate] | 151 to 152 | inhibition at 0.1 µM (rat isolated left atrium): 28%; inhibition at 1 µM [1]: 69%; % arterial pressure variation (anesthetized rabbit; 0.63 mg/kg p.o.): −3%; % heart rate variation (anesthetized rabbit; 0.63 mg/kg p.o.): 5%; % inhibition with regard to ST-segment elevation (anesthetized rabbit; 0.63 mg/kg p.o.): 58%; Number of animals exhibiting reperfusion arrhythmias (anesthetized rabbit; 0.63 mg/kg p.o.): 1/5 |
| CCN(/C(=N/c1ccccc1)SC)C1CCN(CCCCOc2ccc(F)c(F)c2)CC1.O=C(O)/C=C/C(=O)O [Example 3, 1-Ethyl-1-[1-[4-(3,4-difluorophenoxy)butyl]piperidin-4-yl]-2-methyl-3-phenylisothiourea hydrogen fumarate] | 120 to 121 | inhibition at 0.1 µM (rat isolated left atrium): 32% |
| CS/C(=N\c1ccc(F)cc1)N(C)C1CCN(CCCCOc2ccc(F)c(F)c2)CC1.O=C(O)/C=C/C(=O)O [Example 13, 1,2-Dimethyl-1-[1-[4-(3,4-difluorophenoxy)butyl]piperidin-4-yl]-3-(4-fluorophenyl)isothiourea hydrogen fumarate] | 125 | inhibition at 0.1 µM (rat isolated left atrium): 34% |
| CS/C(=N\c1c(F)cccc1F)N(C)C1CCN(CCCCOc2ccc(F)c(F)c2)CC1 [Example 21, 1,2-Dimethyl-1-[1-[4-(3,4-difluorophenoxy)butyl]piperidin-4-yl]-3-(2,6-difluorophenyl)isothiourea hydrogen fumarate] |  | inhibition at 0.1 µM (rat isolated left atrium): 31%; inhibition at 1 µM [1]: 53% |
| CN(C1=Nc2ccccc2CS1)C1CCN(CCCCOc2ccc(F)c(F)c2)CC1 [PF Control, N-[1-[4-(3,4-Difluorophenoxy)butyl]piperidin-4-yl]-N-methyl-4H-3,1-benzothiazin-2-amine] |  | inhibition at 0.1 µM (rat isolated left atrium): 25%; inhibition at 1 µM [1]: 48%; % arterial pressure variation (anesthetized rabbit; 0.63 mg/kg p.o.): 9%; % heart rate variation (anesthetized rabbit; 0.63 mg/kg p.o.): 9%; % inhibition with regard to ST-segment elevation (anesthetized rabbit; 0.63 mg/kg p.o.): 33%; Number of animals exhibiting reperfusion arrhythmias (anesthetized rabbit; 0.63 mg/kg p.o.): 1/5 |
| CN(c1nc2ccccc2s1)C1CCN(CCCCOc2ccc(F)cc2)CC1 [R 56865, N-(1-(4-(4-Fluorophenoxy)butyl)piperidin-4-yl)-N-methyl-2-benzothiazolamine] |  | inhibition at 0.1 µM (rat isolated left atrium): 33%; % arterial pressure variation (anesthetized rabbit; 2.5 mg/kg p.o.): 27%; % heart rate variation (anesthetized rabbit; 2.5 mg/kg p.o.): 0%; % inhibition with regard to ST-segment elevation (anesthetized rabbit; 2.5 mg/kg p.o.): 0%; Number of animals exhibiting reperfusion arrhythmias (anesthetized rabbit; 2.5 mg/kg p.o.): 2/5 |
